Where a name gives a salt, the structure may show the parent alone. Read-outs that look alike come from different tables or passages of the source.
Tested on: hPSC-SCs
[1] = HTS viability of hPSC-SCs in the presence of 30 mM glucose, Prestwick library, Table S4

Compound	z.score.t [1]	z.score.t
CC(C)OC(=O)C(C)(C)Oc1ccc(C(=O)c2ccc(Cl)cc2)cc1 [Fenofibrate]	0.1742	–
COc1cccc2c1C(=O)c1c(O)c3c(c(O)c1C2=O)C[C@@](O)(C(=O)CO)C[C@@H]3O[C@H]1C[C@H](N)[C@H](O)[C@H](C)O1 [Doxorubicin hydrochloride]	−1.209	–
CN1C(C)(C)CCCC1(C)C [Pempidine tartrate]	−0.5583	–
CC1CCc2c(N3CCC(O)CC3)c(F)cc3c(=O)c(C(=O)O)cn1c23 (stereo not drawn) [Nadifloxacin]	−0.9598	–
CC(=O)Oc1cc(C(F)(F)F)ccc1C(=O)O [Triflusal]	1.139	–
CC(C)NCC(O)COc1cccc2[nH]ccc12 (stereo not drawn) [Pindolol]	0.2038	–
Cc1c(NC(=O)c2cccnc2)c(=O)n(-c2ccccc2)n1C [Nifenazone]	−0.2425	–
OCCN1CCN(CC/C=C2/c3ccccc3Sc3ccc(Cl)cc32)CC1 [Zuclopenthixol hydrochloride]	−1.345	–
CN(C)CCOC(=O)C(c1ccccc1)C1(O)CCCC1 (stereo not drawn) [Cyclopentolate hydrochloride]	−0.5614	–
Iobenguane sulfate	0.3845	–
O=C1CN(/N=C/c2ccc([N+](=O)[O-])o2)C(=O)N1 [Nitrofurantoin]	−0.03449	–
Cc1cccc(C)c1NC(=O)C(C)N (stereo not drawn) [Tocainide hydrochloride]	0.8938	–
COc1ccc(-c2ccc(=N)n(CCCC(=O)O)n2)cc1 [Gabazine]	1.252	–
CC1=NS(=O)(=O)c2cc(Cl)ccc2N1 [Diazoxide]	0.4626	–
CN(C/C=C/c1ccccc1)Cc1cccc2ccccc12 [Naftifine hydrochloride]	−1.168	–
CC(C)c1cccc(C(C)C)c1O [Propofol]	–	−0.411
CC(Oc1ccccc1)C(=O)N[C@@H]1C(=O)N2[C@@H]1SC(C)(C)[C@@H]2C(=O)O (stereo partly drawn) [Phenethicillin potassium salt]	0.7158	–
CSc1ccc2c(c1)C(N1CCN(C)CC1)Cc1ccccc1S2.O=C(O)/C=C\C(=O)O (stereo not drawn) [Methiothepin maleate]	−0.8821	–
NCC(CC(=O)O)c1ccc(Cl)cc1 (racemic) [Baclofen (R,S)]	–	1.088
N=C(N)NC(=O)c1nc(Cl)c(N)nc1N [Amiloride hydrochloride dihydrate]	0.07016	–
O=C1c2ccccc2C(=O)C1c1ccccc1 [Phenindione]	0.7312	–

Compound	z.score.t [1]	z.score.t
Cc1cc(-c2ccccc2)nnc1NCCN1CCOCC1 [Minaprine dihydrochloride]	−0.5003	–
O=C(O)CN(CCN(CC(=O)O)CC(=O)O)CCN(CC(=O)O)CC(=O)O [Pentetic acid]	−0.3461	–
Cc1c(NC(C)C)c(=O)n(-c2ccccc2)n1C.Cl [Isopyrin hydrochloride]	−0.2359	–
CN1CCC(=C2c3ccccc3Sc3ccccc32)CC1 [Pimethixene maleate]	−1.233	–
CCN(CC)CCOc1ccc(C(=C(Cl)c2ccccc2)c2ccccc2)cc1.O=C(O)CC(O)(CC(=O)O)C(=O)O [Clomiphene citrate (Z,E)]	−1.755	–
CC(C)NCC(O)COc1ccc(COCCOC(C)C)cc1 (stereo not drawn) [Bisoprolol fumarate]	−0.1003	–
COc1ccc(C(=O)c2ccccc2O)c(O)c1 [Dioxybenzone]	−0.2359	–
COc1cc([C@@H]2c3cc4c(cc3[C@H](O)[C@H]3COC(=O)[C@H]23)OCO4)cc(OC)c1OC [Podophyllotoxin]	–	−2.152
O=C(c1ccccc1)c1ccc2n1CCC2C(=O)O (stereo not drawn) [Ketorolac tromethamine]	0.8465	–
CCN(CC)CCOC(=O)C1(c2ccc([N+](=O)[O-])cc2)CCCC1.Cl [Nitrocaramiphen hydrochloride]	–	1.242
Clc1cnccn1 [2-Chloropyrazine]	0.2112	–
CCCCNC(=O)NS(=O)(=O)c1ccc(C)cc1 [tolbutamide, Tolbutamide, reference compound]	2.089	–
CC(C)(C)NC[C@@H](O)COc1cccc2c1CCCC2=O.Cl [(+) -Levobunolol hydrochloride]	1.281	–
COc1cc([S+](C)[O-])ccc1-c1nc2ncccc2[nH]1 (stereo not drawn) [Sulmazole]	0.6376	–
Cc1cc(C(=O)NNCc2ccccc2)no1 [Isocarboxazid]	−0.9569	–
CC(CCc1ccc(O)cc1)NCCc1ccc(O)c(O)c1 (stereo not drawn) [Dobutamine hydrochloride]	−0.3731	–
C(#CCN1CCCC1)CN1CCCC1.Cl.Cl [Tremorine dihydrochloride]	–	−0.4139
CC(=O)Oc1cc(C(C)C)c(OCCN(C)C)cc1C.Cl [Moxisylyte hydrochoride]	0.8757	–
CN(C)CC/C=C1/c2ccccc2Sc2ccc(Cl)cc21 [Chlorprothixene hydrochloride]	−0.6678	–
CC(C)C[C@H]1C(=O)N2CCC[C@H]2[C@]2(O)O[C@](NC(=O)[C@@H]3C=C4c5cccc6[nH]cc(c56)C[C@H]4N(C)C3)(C(C)C)C(=O)N12 [Ergocryptine-alpha]	–	0.495
CO[C@@]1(NC(=O)C(C(=O)O)c2ccc(O)cc2)C(=O)N2C(C(=O)O)=C(CSc3nnnn3C)CO[C@@H]21 (stereo partly drawn) [Moxalactam disodium salt]	0.4105	–

Compound	z.score.t [1]	z.score.t
Cc1c(N(C)CS(=O)(=O)[O-])c(=O)n(-c2ccccc2)n1C.[Na+] [Dipyrone]	−1.008	–
CC(C(=O)O)c1cccc(C(=O)c2ccccc2)c1 (stereo not drawn) [Ketoprofen]	−1.014	–
Cc1c(N(C)C)c(=O)n(-c2ccccc2)n1C [Amidopyrine]	−0.2278	–
COc1ccc2[nH]c3c(c2c1)CCN=C3C [Methoxy-6-harmalan]	–	−0.1216
COc1cc2ccc(=O)oc2cc1O [Scopoletin]	−1.558	–
NS(=O)(=O)c1cc(C(=O)O)c(NCc2ccco2)cc1Cl [Furosemide]	−1.306	–
Nc1ccccc1S(N)(=O)=O [2-Aminobenzenesulfonamide]	1.43	–
c1ccc(CC2=NCCN2)cc1 [Tolazoline hydrochloride]	1.268	–
CC1CC(OC(=O)C(O)c2ccccc2)CC(C)(C)N1C (stereo not drawn) [Eucatropine hydrochloride]	0.0568	–
CC(=O)CCCCn1c(=O)c2c(ncn2C)n(C)c1=O [Pentoxifylline]	1.045	–
NS(=O)(=O)c1cc2c(cc1Cl)N=C(CSCc1ccccc1)NS2(=O)=O [Benzthiazide]	0.3022	–
COc1ccc(OC)c(C(O)CNC(=O)CN)c1 (stereo not drawn) [Midodrine hydrochloride]	0.5856	–
O=C(COc1ccc(Cl)cc1)N1CCN(Cc2ccc3c(c2)OCO3)CC1 [Fipexide hydrochloride]	0.5179	–
C[N+]1(C)CCC[C@H]1C(=O)[O-].Cl [Stachydrine hydrochloride]	−0.8304	–
CN1CCC(OC(c2ccccc2)c2ccccc2)CC1 [Diphenylpyraline hydrochloride]	−0.7376	–
CC(Cc1cccc(C(F)(F)F)c1)NCCOC(=O)c1ccccc1 (stereo not drawn) [Benfluorex hydrochloride]	1.095	–
COC1=CC(=O)O[C@@H](/C=C/c2ccccc2)C1 [Kawain]	–	0.9109
CC1=CC(=O)c2ccccc2C1=O [Menadione]	−1.949	–
Nc1ccc(O)c(C(=O)O)c1 [Mesalamine]	−0.5745	–
Cc1cccc(C)c1N=C1NCCCS1 [Xylazine]	–	1.75
CC(=O)CC(c1ccc([N+](=O)[O-])cc1)c1c(O)c2ccccc2oc1=O (stereo not drawn) [Acenocoumarol]	−0.2425	–

Compound	z.score.t [1]	z.score.t
O=c1c(O)c(-c2cc(O)c(O)c(O)c2)oc2cc(O)cc(O)c12 [Myricetin]	0.713	–
COc1cc2c(cc1O)[C@@H]1Cc3ccc(OC)c(O)c3CN1CC2 [Scoulerine]	–	−1.209
O=C(O)c1cccnc1 [Niacin]	0.4105	–
C[C@@H]1CN([C@H]2CC[C@](C#N)(c3ccc(F)cc3)CC2)CC[C@]1(C(=O)O)c1ccccc1 [Levocabastine hydrochloride]	−0.6516	–
CC(=O)NC(CC(=O)O)C(=O)O (racemic) [Aspartic acid, N-acetyl (R,S)]	0.006455	–
CC(=O)N[C@@H](CC(C)C)C(=O)O [N-Acetyl-L-leucine]	0.2361	–
Foliosidine	–	−0.2802
Cc1ccccc1C(OCCN(C)C)c1ccccc1 (stereo not drawn) [Orphenadrine hydrochloride]	−1.003	–
CC(C)n1c(/C=C/C(O)CC(O)CC(=O)O)c(-c2ccc(F)cc2)c2ccccc21 (stereo not drawn) [Fluvastatin sodium salt]	−0.4538	–
CC[C@@H](C)C(=O)O[C@H]1[C@H](O)[C@H]2[C@@H](CN3C[C@@H](C)CC[C@H]3[C@@]2(C)O)[C@@H]2C[C@]34O[C@]5(O)[C@@H](OC(=O)[C@@](C)(O)CC)CC[C@@]3(C)[C@@H]5[C@@H](OC(C)=O)[C@@H](OC(C)=O)[C@H]4[C@@]21O [Protoveratrine A]	–	−0.3319
CC(=O)SCC(Cc1ccccc1)C(=O)NCC(=O)OCc1ccccc1 (stereo not drawn) [Racecadotril]	−0.1853	–
CN(C)CCCN1c2ccccc2CCc2ccccc21 [Imipramine hydrochloride]	−0.7013	–
[H]/N=C(/N)NS(=O)(=O)c1ccc(N)cc1 [Sulfaguanidine]	−0.2425	–
Cc1cccc(CN2CCN(C(c3ccccc3)c3ccc(Cl)cc3)CC2)c1 (stereo not drawn) [Meclozine dihydrochloride]	−1.823	–
C#C[C@]1(O)CC[C@H]2[C@@H]3CCC4=C(CCC(=O)C4)[C@H]3CC[C@@]21C [Norethynodrel]	1.857	–
CC(C(=O)O)c1ccc(C(=O)c2cccs2)cc1 (stereo not drawn) [Suprofen]	0.2361	–
Verteporfin	−1.551	–
CCc1cc(C(N)=S)ccn1 [Ethionamide]	0.3024	–
CC(CN1c2ccccc2Sc2ccccc21)N(C)C (stereo not drawn) [Promethazine hydrochloride]	1.578	–
C[C@]12CC[C@H](O)C[C@H]1CC[C@@H]1[C@@H]2C[C@@H](O)[C@]2(C)[C@@H](C3=CC(=O)OC3)CC[C@]12O [Digoxigenin]	−2.387	–
CCCCNc1ccc(C(=O)OCCN(C)C)cc1.Cl [TetracaÂ<ne hydrochloride]	–	−0.2276
